{
  "source": "patent US20220002283A1",
  "about": "(Mylan Laboratories Limited, priority 2019, published 2022)",
  "key": {"[1]": {"assay": "Solid state stability, PXRD", "assay_type": "physicochemical", "design": "key: X: crystalline; S: stable", "experimental": "Thus, the X-ray diffraction patterns of the co-crystals of provided herein were measured on a PANalytical X'PertPRO Powder X-ray diffractometer equipped with goniometer of θ/θ configuration and X'celerator detector. The Cu-anode X-ray tube was operated at 45 kV and 40 mA. The experiments were conducted over the 2θ range of 2.0°-50.0°, 0.030° step size and 189.865 time per step (seconds) and all the co-crystals were characterized with above mentioned method.\n(§1) The samples were analyzed by PXRD, assay and related substances by HPLC."}, "[2]": {"assay": "Solid state stability, impurities by HPLC", "assay_type": "physicochemical", "experimental": "A Zorbax Eclipse XDB C18 column was used with the mobile phase of methanol-acetonitrile-10 mM phosphate buffer solution at the detection wavelength of 350 nm and 260 nm. • Instrumentation: Waters HPLC system having 2695 model pump having UV/PDA detector with Empower chromatography software or its equivalent. • Chemicals: Dipotassium hydrogen phosphate, orthophosphoric acid, acetonitrile, water, sodium hydroxide, methanol. • Column: Zorbax Eclipse XDB C18 column, 250×4.6 mm, 5 μm. • Elution: Gradient. • Flow rate: 0.8 mL/min.\nas §1"}, "[3]": {"assay": "Solid state stability, physical and chemical (PXRD and HPLC), overall finding", "conditions": "40° C./75% RH and 25° C./60% RH, three months", "experimental": "as §1"}, "[4]": {"assay": "Solid state stability, HPLC meloxicam co-crystal assay", "assay_type": "physicochemical", "conditions": "for A %: Co-former Assay % / M %: Meloxicam Assay %: samples as per Examples 1, 2, 3", "experimental": "• Instrumentation: Waters HPLC system having 2695 model pump having UV/PDA detector with Empower chromatography software or its equivalent. • Column: (A) Unison UK C18 column; (B) YMC Trait C18 EXRS Column, 250×4.6 mm, 5.0 micron; (C) Water Atlantis T3, 250×4.6 mm, 5 micron. • Mobile Phase: (A) methanol-acetonitrile-dipotassium phosphate buffer; or (B) acetonitrile-Sodium sulfate buffer solution • Detection wavelength: 210 nm and 360 nm\nas §1"}, "[5]": {"conditions": "cited from earlier work"}, "[6]": {"conditions": "25° C./60% RH, 1 mo., samples as per Example 7 or 17"}, "[7]": {"conditions": "25° C./60% RH, 2 mo., samples as per Example 7 or 17"}, "[8]": {"conditions": "25° C./60% RH, 3 mo., samples as per Example 7 or 17"}, "[9]": {"conditions": "25° C./60% RH, Initial, samples as per Example 7 or 17"}, "[10]": {"conditions": "40° C./75% RH, 1 mo., samples as per Example 7, 17 or 14"}, "[11]": {"conditions": "40° C./75% RH, 2 mo., samples as per Example 7, 17 or 14"}, "[12]": {"conditions": "40° C./75% RH, 3 mo., samples as per Example 7 or 17"}, "[13]": {"conditions": "40° C./75% RH, Initial, samples as per Example 7, 17 or 14"}},
  "data": [
    {"smiles": "Cc1cnc(NC(=O)C2=C(O)c3ccccc3S(=O)(=O)N2C)s1.O=C(O)c1ccc2ccccc2c1O", "values": [
      {"measurement": "PXRD", "setting": "[1]; [6]", "value": "S"},
      {"measurement": "PXRD", "setting": "[1]; 25° C./60% RH, 1 mo., samples as per Examples 1, 2, 3", "value": "S"},
      {"measurement": "PXRD", "setting": "[1]; [7]", "value": "S"},
      {"measurement": "PXRD", "setting": "[1]; 25° C./60% RH, 2 mo., samples as per Examples 1, 2, 3", "value": "S"},
      {"measurement": "PXRD", "setting": "[1]; [8]", "value": "S"},
      {"measurement": "PXRD", "setting": "[1]; 25° C./60% RH, 3 mo., samples as per Examples 1, 2, 3", "value": "S"},
      {"measurement": "PXRD", "setting": "[1]; [9]", "value": "X"},
      {"measurement": "PXRD", "setting": "[1]; 25° C./60% RH, Initial, samples as per Examples 1, 2, 3", "value": "X"},
      {"measurement": "PXRD", "setting": "[1]; [10]", "value": "S"},
      {"measurement": "PXRD", "setting": "[1]; 40° C./75% RH, 1 mo., samples as per Examples 1, 2, 3", "value": "S"},
      {"measurement": "PXRD", "setting": "[1]; [11]", "value": "S"},
      {"measurement": "PXRD", "setting": "[1]; 40° C./75% RH, 2 mo., samples as per Examples 1, 2, 3", "value": "S"},
      {"measurement": "PXRD", "setting": "[1]; [12]", "value": "S"},
      {"measurement": "PXRD", "setting": "[1]; 40° C./75% RH, 3 mo., samples as per Examples 1, 2, 3", "value": "S"},
      {"measurement": "PXRD", "setting": "[1]; [13]", "value": "X"},
      {"measurement": "PXRD", "setting": "[1]; 40° C./75% RH, Initial, samples as per Examples 1, 2, 3", "value": "X"},
      {"measurement": "Impurities (% w/w, by HPLC) Methyl Meloxicam", "setting": "[2]; [6]", "value": 0.01, "unit": "% w/w"},
      {"measurement": "Impurities (% w/w, by HPLC) Other* (any other individual impurity)", "setting": "[2]; [6]", "value": 0.03, "unit": "% w/w"},
      {"measurement": "Impurities (% w/w, by HPLC) Total", "setting": "[2]; [6]", "value": 0.08, "unit": "% w/w"},
      {"measurement": "Impurities (% w/w, by HPLC) Methyl Meloxicam", "setting": "[2]; [7]", "value": 0.01, "unit": "% w/w"},
      {"measurement": "Impurities (% w/w, by HPLC) Other* (any other individual impurity)", "setting": "[2]; [7]", "value": 0.03, "unit": "% w/w"},
      {"measurement": "Impurities (% w/w, by HPLC) Total", "setting": "[2]; [7]", "value": 0.13, "unit": "% w/w"},
      {"measurement": "Impurities (% w/w, by HPLC) Methyl Meloxicam", "setting": "[2]; [8]", "value": 0.01, "unit": "% w/w"},
      {"measurement": "Impurities (% w/w, by HPLC) Other* (any other individual impurity)", "setting": "[2]; [8]", "value": 0.03, "unit": "% w/w"},
      {"measurement": "Impurities (% w/w, by HPLC) Total", "setting": "[2]; [8]", "value": 0.08, "unit": "% w/w"},
      {"measurement": "Impurities (% w/w, by HPLC) Methyl Meloxicam", "setting": "[2]; [9]", "value": 0.01, "unit": "% w/w"},
      {"measurement": "Impurities (% w/w, by HPLC) Other* (any other individual impurity)", "setting": "[2]; [9]", "value": 0.02, "unit": "% w/w"},
      {"measurement": "Impurities (% w/w, by HPLC) Total", "setting": "[2]; [9]", "value": 0.05, "unit": "% w/w"},
      {"measurement": "Impurities (% w/w, by HPLC) Methyl Meloxicam", "setting": "[2]; [10]", "value": 0.01, "unit": "% w/w"},
      {"measurement": "Impurities (% w/w, by HPLC) Other* (any other individual impurity)", "setting": "[2]; [10]", "value": 0.03, "unit": "% w/w"},
      {"measurement": "Impurities (% w/w, by HPLC) Total", "setting": "[2]; [10]", "value": 0.09, "unit": "% w/w"},
      {"measurement": "Impurities (% w/w, by HPLC) Methyl Meloxicam", "setting": "[2]; [11]", "value": 0.01, "unit": "% w/w"},
      {"measurement": "Impurities (% w/w, by HPLC) Other* (any other individual impurity)", "setting": "[2]; [11]", "value": 0.03, "unit": "% w/w"},
      {"measurement": "Impurities (% w/w, by HPLC) Total", "setting": "[2]; [11]", "value": 0.13, "unit": "% w/w"},
      {"measurement": "Impurities (% w/w, by HPLC) Methyl Meloxicam", "setting": "[2]; [12]", "value": 0.01, "unit": "% w/w"},
      {"measurement": "Impurities (% w/w, by HPLC) Other* (any other individual impurity)", "setting": "[2]; [12]", "value": 0.03, "unit": "% w/w"},
      {"measurement": "Impurities (% w/w, by HPLC) Total", "setting": "[2]; [12]", "value": 0.10, "unit": "% w/w"},
      {"measurement": "Impurities (% w/w, by HPLC) Methyl Meloxicam", "setting": "[2]; [13]", "value": 0.01, "unit": "% w/w"},
      {"measurement": "Impurities (% w/w, by HPLC) Other* (any other individual impurity)", "setting": "[2]; [13]", "value": 0.03, "unit": "% w/w"},
      {"measurement": "Impurities (% w/w, by HPLC) Total", "setting": "[2]; [13]", "value": 0.06, "unit": "% w/w"},
      {"measurement": "Meloxicam Related Compounds A, B, C, and D by HPLC", "setting": "[2]; any timepoint from initiation up to 3 months, 40° C./75% RH and 25° C./60% RH", "value": "^#Meloxicam Related Compounds A, B, C, and D (see Table 4) were not detectable at any timepoint from initiation up to 3 months."},
      {"measurement": "physical and chemical stability", "setting": "[3]", "value": "physically and chemically stable"},
      {"measurement": "Assay (% by HPLC) M % (Meloxicam Assay %)", "setting": "[4]; [6]", "value": 65.0, "unit": "%"},
      {"measurement": "A %: Co-former Assay %", "setting": "[4]; 25° C./60% RH, 1 mo.", "value": 34.5, "unit": "%"},
      {"measurement": "M %: Meloxicam Assay %", "setting": "[4]; 25° C./60% RH, 1 mo.", "value": 64.7, "unit": "%"},
      {"measurement": "Assay (% by HPLC) M % (Meloxicam Assay %)", "setting": "[4]; [7]", "value": 63.5, "unit": "%"},
      {"measurement": "A %: Co-former Assay %", "setting": "[4]; 25° C./60% RH, 2 mo.", "value": 35.0, "unit": "%"},
      {"measurement": "M %: Meloxicam Assay %", "setting": "[4]; 25° C./60% RH, 2 mo.", "value": 65.0, "unit": "%"},
      {"measurement": "Assay (% by HPLC) M % (Meloxicam Assay %)", "setting": "[4]; [8]", "value": 64.3, "unit": "%"},
      {"measurement": "A %: Co-former Assay %", "setting": "[4]; 25° C./60% RH, 3 mo.", "value": 34.0, "unit": "%"},
      {"measurement": "M %: Meloxicam Assay %", "setting": "[4]; 25° C./60% RH, 3 mo.", "value": 64.6, "unit": "%"},
      {"measurement": "Assay (% by HPLC) M % (Meloxicam Assay %)", "setting": "[4]; [9]", "value": 65.1, "unit": "%"},
      {"measurement": "A %: Co-former Assay %", "setting": "[4]; 25° C./60% RH, Initial", "value": 34.2, "unit": "%"},
      {"measurement": "M %: Meloxicam Assay %", "setting": "[4]; 25° C./60% RH, Initial", "value": 64.3, "unit": "%"},
      {"measurement": "Assay (% by HPLC) M % (Meloxicam Assay %)", "setting": "[4]; [10]", "value": 64.7, "unit": "%"},
      {"measurement": "A %: Co-former Assay %", "setting": "[4]; 40° C./75% RH, 1 mo.", "value": 34.9, "unit": "%"},
      {"measurement": "M %: Meloxicam Assay %", "setting": "[4]; 40° C./75% RH, 1 mo.", "value": 64.9, "unit": "%"},
      {"measurement": "Assay (% by HPLC) M % (Meloxicam Assay %)", "setting": "[4]; [11]", "value": 64.0, "unit": "%"},
      {"measurement": "M %: Meloxicam Assay %", "setting": "[4]; 40° C./75% RH, 2 mo.", "value": 64.8, "unit": "%"},
      {"measurement": "Assay (% by HPLC) M % (Meloxicam Assay %)", "setting": "[4]; [12]", "value": 64.4, "unit": "%"},
      {"measurement": "A %: Co-former Assay %", "setting": "[4]; 40° C./75% RH, 3 mo.", "value": 34.2, "unit": "%"},
      {"measurement": "M %: Meloxicam Assay %", "setting": "[4]; 40° C./75% RH, 3 mo.", "value": 65.5, "unit": "%"},
      {"measurement": "Assay (% by HPLC) M % (Meloxicam Assay %)", "setting": "[4]; [13]", "value": 65.2, "unit": "%"},
      {"measurement": "A %: Co-former Assay %", "setting": "[4]; 40° C./75% RH, Initial", "value": 34.2, "unit": "%"},
      {"measurement": "M %: Meloxicam Assay %", "setting": "[4]; 40° C./75% RH, Initial", "value": 64.3, "unit": "%"}
    ]},
    {"smiles": "O=C(O)c1ccc2ccccc2c1O", "note": "[1-Hydroxy-2-naphthoic acid]", "values": [
      {"measurement": "pKa", "setting": "physchem", "value": 1.5}
    ]},
    {"smiles": "O=C(O)c1ccc(O)cc1", "note": "[4-Hydroxybenzoic acid]", "values": [
      {"measurement": "pKa (co-former)", "setting": "[5]", "value": 4.58},
      {"measurement": "pKa", "setting": "physchem", "value": -0.38}
    ]},
    {"smiles": "O=C(O)CCc1ccccc1", "note": "[Hydrocinnamic acid]", "values": [
      {"measurement": "pKa (co-former)", "setting": "[5]", "value": 4.66},
      {"measurement": "pKa", "setting": "physchem", "value": -0.46}
    ]}
  ]
}
